Measurements: patent US20210113529A1, “MEDICINE FOR PREVENTING OR TREATING OPHTHALMIC DISEASE ASSOCIATED WITH ENHANCED INTRAOCULAR NEOVASCULARIZATION AND/OR INTRAOCULAR VASCULAR PERMEABILITY” (KYOTO UNIVERSITY, priority 2018, published 2021)

What was measured:
S1P4 receptor = target: T1, S1P4 receptor (Homo sapiens, UniProt O95977); settings: GTP[γ35S] binding assay; report PLoS One, 2014; cited from earlier work
T1 sequence (O95977 1-384): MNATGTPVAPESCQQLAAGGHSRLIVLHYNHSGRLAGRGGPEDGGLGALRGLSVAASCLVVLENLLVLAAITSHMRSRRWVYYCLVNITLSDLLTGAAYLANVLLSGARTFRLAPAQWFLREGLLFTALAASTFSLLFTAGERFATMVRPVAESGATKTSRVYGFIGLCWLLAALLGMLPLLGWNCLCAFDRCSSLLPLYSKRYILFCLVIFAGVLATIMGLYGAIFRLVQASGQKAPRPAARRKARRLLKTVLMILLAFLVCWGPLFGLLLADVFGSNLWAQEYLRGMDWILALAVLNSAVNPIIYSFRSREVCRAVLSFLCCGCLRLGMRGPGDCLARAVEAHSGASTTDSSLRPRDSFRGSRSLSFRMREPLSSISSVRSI

[1] = system: laser-induced choroidal neovascularization (CNV) model; experiment: Laser-induced CNV model: area of CNV in choroidal flat mount; format: in vivo, mice; settings: Day 14
Procedure: After fluorescence fundus photography had been performed as described above in the section (1), 0.5 mL of fluorescein isothiocyanate dextran (FITC-dextran; 20 mg/mL, Sigma-Aldrich) was administered into the tail vein of the mice. The mice were euthanized by cervical dislocation, and the eyeball was extirpated. The extirpated eyeball was fixed in a 4% paraformaldehyde phosphate buffer for 12 hours. After that, the cornea and lens were excised under a microscope, and the remaining vitreous artery was removed with forceps. Further, the retina was removed, and the choroid was notched 8 points and embedded with Fluoromount (Diagnostic BioSystems) in a flat state to generate a choroidal flat mount specimen. The choroidal flat mount was photographed using a confocal laser scanning microscope (FLUOVIEW FV10i; Olympus, Tokyo, Japan). Next, on the basis of the photographed image, the CNV was encircled using analysis software OLYMPUS FLUOVIEW FV10i (Olympus), and the area thereof was determined as the area of CNV (μm^2). All analyses were performed in a blinded manner. After fluorescence fundus photography had been performed as described above in the section (1), a choroidal flat mount specimen was generated by the same method as in Example 1. The choroidal flat mount was photographed using an all-in-one fluorescence microscope (BZ-X710; Keyence, Osaka, Japan). Next, on the basis of the photographed image, the CNV was encircled using image editing software Image J, and the area thereof was determined as the area of CNV (μm^2). All analyses were performed in a blinded manner.

[2] = system: lymphocytes in the peripheral blood; experiment: Lymphocyte count in peripheral blood, ddy strain mice; format: in vivo; settings: 0.03 mg/kg orally twice at an interval of 12 hours, 24 hours from second administration
Procedure: Next, 7-week-old mice (Japan SLC, Inc., ddy strain) were orally administered Compound 1 suspended in a vehicle (0.5% MC solution) at a dose of 0.03 mg/kg or 0.3 mg/kg (in terms of free form) twice at an interval of 12 hours in the same manner as in Example 2. A control was administered only the vehicle (vehicle group). Experiments were performed using 6 mice in each group. After 24 hours from the second administration, blood was collected from the abdominal vena cava under isoflurane anesthesia using a heparin-treated syringe, and was mixed with EDTA.2K (1 mg). The lymphocyte count in the collected blood was measured using XT-2000iv (Sysmex Corporation).

S1P2 receptor = S1P2 receptor (Homo sapiens, UniProt O95136); settings: GTP[γ35S] binding assay; report PLoS One, 2014; cited from earlier work
[3] = system: retinal vein occlusion (RVO) model; experiment: RVO model: retinal non perfusion area; format: in vivo, mice
Procedure: Eight-week-old mice (Japan SLC, Inc., ddy strain) were anesthetized by intramuscularly administering 10 mL/kg of a mixed anesthetic solution diluted so as to contain ketamine (120 mg/kg) and xylazine (6 mg/kg). After that, 0.15 mL of rose bengal (20 mg/kg; WAKO) was administered into the tail vein, and a vein three head systems away from the optic nerve head of the right eye of the mice was irradiated with a laser to occlude a retinal vein. Thus, a retinal non perfusion area was generated. For the occlusion, the laser irradiation was performed 10 times to 15 times per vein. For the laser irradiation, an attachment of a fundus photography apparatus Micron 4 (Phoenix Research Laboratories, Inc., Pleasanton, Calif., USA) was used (wavelength: 532 nm, spot size: 50 μm, irradiation time: 5,000 ms, laser output: 50 mW). Three veins were occluded per eye, and it was confirmed with photographs of the fundus that the laser-irradiated veins had been completely occluded. […]
The retinal flat mount specimen was photographed under a fluorescence microscope (BX50, Olympus) using a high-sensitivity cooling CCD camera (DP30BW, Olympus) through imaging software Metamorph (Universal Imaging Corp., Downingtown, Pa., USA) on an XY motor-operated stage (Sigma Koki Co., Ltd., Tokyo, Japan). […] The ratio of the retinal non perfusion area was quantified using analysis software in Metamorph. […]

S1P2 receptor, sequence (O95136 whole entry, the tested form may be a part): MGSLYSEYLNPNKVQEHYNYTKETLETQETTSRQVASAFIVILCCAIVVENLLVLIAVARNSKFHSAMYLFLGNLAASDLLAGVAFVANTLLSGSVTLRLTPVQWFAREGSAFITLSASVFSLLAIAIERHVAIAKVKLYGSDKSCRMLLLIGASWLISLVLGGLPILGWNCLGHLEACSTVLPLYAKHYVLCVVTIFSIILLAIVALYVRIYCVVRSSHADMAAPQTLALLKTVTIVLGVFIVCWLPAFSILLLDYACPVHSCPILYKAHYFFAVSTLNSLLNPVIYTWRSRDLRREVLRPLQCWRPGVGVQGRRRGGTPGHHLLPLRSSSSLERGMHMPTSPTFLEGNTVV

For `C[C@H](Oc1ccc(-c2nc(-c3ccc4[nH]cnc4c3)no2)cc1C(F)(F)F)C(F)(F)F.Cl` [Compound 1, 5-{5-[3-(trifluoromethyl)-4-{[(2S)-1,1,1-trifluoropropan-2-yl]oxy}phenyl]-1,2,4-oxadiazol-3-yl}-1H-benzimidazole monohydrochloride], the “EC50 for S1P4 receptor agonist activity as compared to that for the S1P1 receptor” value (S1P4 receptor) is listed as ≥ 100 fold, the “area of CNV” value ([1]; 0.03 mg/kg orally once daily) is listed as “a decrease in area of CNV” and the “area of CNV” value ([1]; 0.3 mg/kg orally once daily) is listed as “a significant decrease was found”. The “reduction ratio of the area of CNV” value ([1]; 0.3 mg/kg orally once daily) was 34%, the “lymphocytes in the peripheral blood” value [2] was “did not cause a significant decrease in lymphocytes in the peripheral blood” and the “EC50 for S1P2 receptor agonist activity as compared to that for the S1P1 receptor” value (S1P2 receptor) was ≥ 100 fold. For the same compound, the “enlargement of the non perfusion area” value ([3]; early administration: 0.3 mg/kg orally 12 hours before and immediately after laser irradiation) was “significantly reduced the enlargement of the non perfusion area” and the “enlargement of the non perfusion area” value ([3]; late administration: 0.3 mg/kg orally twice at an interval of 12 hours on the 7th day after laser irradiation) was “significantly reduced the enlargement of the non perfusion area”.
